Literature values in patent publication US20140012157A1, “Monobody Sensors for Monitoring Neuromuscular Blockade” (priority 2007, published 2014).

Tests used:
[1] = test system: isolated cat anterior tibialis and sartorius muscles
[2] = manufacturer's recommended intubation dose
[3] = PTC of 1 measured; from t=18.8−6.46√PTC

| Structure (SMILES) | receptors that had to be blocked by the antagonist before block was noticeable [1] [%] | receptors that had to be blocked for near complete blockade [1] [%] | 2×ED 95 dose (double the dose that is effective for 95% of the population) [2] [mg/kg] | time until return of the TOF [3] [min] |
| --- | --- | --- | --- | --- |
| COc1cc2c3cc1Oc1cc(ccc1O)C[C@@H]1c4c(cc(OC)c(O)c4Oc4ccc(cc4)C[C@@H]3N(C)CC2)CC[N+]1(C)C [tubocurarine] | 76 | 92 |  |  |
| C=CC[N+]1([C@H]2C[C@H]3[C@@H]4CC[C@H]5C[C@H](O)[C@@H](N6CCOCC6)C[C@]5(C)[C@H]4CC[C@]3(C)[C@H]2OC(C)=O)CCCC1 [rocuronium] |  |  | 0.6 | 12.34 |
